Test [1] deals with Histone deacetylase 4 (Homo sapiens, UniProt P56524). Briefly: Inhibition of human recombinant HDAC4 after 1 hr by luminescence assay.
Test [2] concerns the target T1, Protein deacetylase HDAC6 (Homo sapiens, UniProt Q9UBN7).
T1 sequence (Q9UBN7 whole entry): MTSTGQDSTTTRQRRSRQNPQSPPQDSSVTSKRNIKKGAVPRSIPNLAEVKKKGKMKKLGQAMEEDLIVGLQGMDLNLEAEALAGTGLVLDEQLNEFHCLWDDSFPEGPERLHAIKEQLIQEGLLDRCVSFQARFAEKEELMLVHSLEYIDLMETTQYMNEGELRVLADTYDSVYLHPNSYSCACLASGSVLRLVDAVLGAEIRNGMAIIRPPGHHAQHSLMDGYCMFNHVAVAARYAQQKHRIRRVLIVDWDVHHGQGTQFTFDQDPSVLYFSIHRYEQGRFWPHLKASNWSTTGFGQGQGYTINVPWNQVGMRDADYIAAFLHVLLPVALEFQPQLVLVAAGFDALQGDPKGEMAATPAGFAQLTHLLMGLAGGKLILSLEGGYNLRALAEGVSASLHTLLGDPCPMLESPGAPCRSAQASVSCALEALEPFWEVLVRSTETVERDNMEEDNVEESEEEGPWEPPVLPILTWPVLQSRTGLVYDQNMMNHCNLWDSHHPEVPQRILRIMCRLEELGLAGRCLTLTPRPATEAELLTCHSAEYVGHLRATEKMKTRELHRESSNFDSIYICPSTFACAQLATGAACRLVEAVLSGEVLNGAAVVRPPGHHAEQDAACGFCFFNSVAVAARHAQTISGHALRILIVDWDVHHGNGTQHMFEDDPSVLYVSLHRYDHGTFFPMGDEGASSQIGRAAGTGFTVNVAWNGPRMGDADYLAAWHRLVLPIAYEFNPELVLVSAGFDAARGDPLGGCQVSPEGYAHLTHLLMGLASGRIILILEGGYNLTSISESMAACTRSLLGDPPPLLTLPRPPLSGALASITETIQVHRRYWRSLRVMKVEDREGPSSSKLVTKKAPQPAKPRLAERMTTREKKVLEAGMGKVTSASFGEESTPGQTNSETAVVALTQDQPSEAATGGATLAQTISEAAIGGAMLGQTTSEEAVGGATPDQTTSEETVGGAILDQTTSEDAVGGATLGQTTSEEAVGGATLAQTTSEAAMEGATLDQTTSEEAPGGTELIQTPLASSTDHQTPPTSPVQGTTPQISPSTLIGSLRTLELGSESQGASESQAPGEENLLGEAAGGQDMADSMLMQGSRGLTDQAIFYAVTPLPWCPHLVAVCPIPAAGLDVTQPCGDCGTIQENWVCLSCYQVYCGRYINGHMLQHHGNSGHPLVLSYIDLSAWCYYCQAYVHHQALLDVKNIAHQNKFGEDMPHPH
Briefly: Inhibition of human recombinant HDAC6 after 1 hr by luminescence assay.

Test [3] addresses Histone deacetylase 1 (Homo sapiens, UniProt Q13547). Briefly: Inhibition of human recombinant HDAC1 after 1 hr by luminescence assay.

Sequence of Histone deacetylase 4 (P56524 whole entry): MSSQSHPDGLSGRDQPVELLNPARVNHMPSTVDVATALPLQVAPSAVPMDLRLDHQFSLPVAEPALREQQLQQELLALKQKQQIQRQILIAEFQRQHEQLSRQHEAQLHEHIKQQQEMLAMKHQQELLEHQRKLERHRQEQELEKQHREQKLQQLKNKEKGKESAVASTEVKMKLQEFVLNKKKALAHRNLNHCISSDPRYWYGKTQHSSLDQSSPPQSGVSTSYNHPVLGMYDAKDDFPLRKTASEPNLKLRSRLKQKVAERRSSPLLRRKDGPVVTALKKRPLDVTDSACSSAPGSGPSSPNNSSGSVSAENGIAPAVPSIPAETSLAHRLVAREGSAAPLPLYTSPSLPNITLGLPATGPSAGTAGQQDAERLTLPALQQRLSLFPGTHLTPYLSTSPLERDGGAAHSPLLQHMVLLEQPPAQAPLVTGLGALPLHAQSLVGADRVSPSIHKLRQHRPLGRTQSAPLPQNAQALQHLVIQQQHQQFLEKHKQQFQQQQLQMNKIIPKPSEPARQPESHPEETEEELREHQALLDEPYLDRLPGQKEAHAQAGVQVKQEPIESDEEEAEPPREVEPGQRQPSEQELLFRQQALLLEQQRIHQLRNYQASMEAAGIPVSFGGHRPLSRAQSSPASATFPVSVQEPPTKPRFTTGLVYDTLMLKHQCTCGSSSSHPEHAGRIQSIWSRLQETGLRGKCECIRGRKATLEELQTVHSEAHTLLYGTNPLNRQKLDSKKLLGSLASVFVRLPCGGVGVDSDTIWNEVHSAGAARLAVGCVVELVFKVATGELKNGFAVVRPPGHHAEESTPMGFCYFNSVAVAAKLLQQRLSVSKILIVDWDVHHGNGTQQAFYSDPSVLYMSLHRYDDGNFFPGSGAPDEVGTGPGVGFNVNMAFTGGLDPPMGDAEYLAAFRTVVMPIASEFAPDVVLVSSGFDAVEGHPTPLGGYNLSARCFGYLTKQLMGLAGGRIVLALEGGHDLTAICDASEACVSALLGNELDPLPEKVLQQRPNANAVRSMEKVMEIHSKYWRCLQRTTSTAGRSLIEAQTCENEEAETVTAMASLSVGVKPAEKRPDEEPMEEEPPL
Sequence of Histone deacetylase 1 (Q13547 whole entry): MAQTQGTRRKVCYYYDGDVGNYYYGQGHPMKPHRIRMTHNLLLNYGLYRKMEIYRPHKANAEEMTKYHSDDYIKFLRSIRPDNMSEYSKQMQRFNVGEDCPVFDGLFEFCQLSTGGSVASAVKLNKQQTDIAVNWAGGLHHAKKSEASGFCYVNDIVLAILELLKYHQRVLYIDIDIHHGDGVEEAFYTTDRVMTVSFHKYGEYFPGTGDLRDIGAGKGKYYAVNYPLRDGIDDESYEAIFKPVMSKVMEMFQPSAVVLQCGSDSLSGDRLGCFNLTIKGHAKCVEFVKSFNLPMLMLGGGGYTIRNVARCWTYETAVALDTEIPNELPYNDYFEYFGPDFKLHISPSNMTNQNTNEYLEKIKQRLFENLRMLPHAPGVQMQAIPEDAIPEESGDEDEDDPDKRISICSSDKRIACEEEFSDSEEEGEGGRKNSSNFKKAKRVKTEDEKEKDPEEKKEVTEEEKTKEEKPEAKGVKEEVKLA

As to `CCCC[C@H]1NC(=O)C[C@H]2/C=C/CCSSC[C@@H](NC1=O)C(=O)N[C@H](CC(C)C)[C@@H](O)CC(=O)O2`, the concentration for half-maximal inhibition (IC50) in test [1] is 132000 nM; in test [2] it was 1920 nM; in test [3], 2.6 nM.
Turning to `CC[C@H](C)[C@H]1NC(=O)[C@H]2CSSCC/C=C/[C@H](CC(=O)N[C@H](CCSC)C(=O)N2)OC(=O)C[C@@H]1O` [THAILANDEPSIN A], the figures for the IC50 in test [1], in test [2] and in test [3] were 37200 nM, 830 nM and 0.28 nM, respectively.
Consider `CCCC[C@H]1NC(=O)C[C@H]2/C=C/CCSSC[C@@H](NC1=O)C(=O)N[C@H]([C@@H](C)CC)[C@@H](O)CC(=O)O2` [THAILANDEPSIN B], for which the concentration for half-maximal inhibition (IC50) in test [1] is 57400 nM; in test [2], 1190 nM; in test [3] it was 1.2 nM.
Take `CCCC[C@H]1NC(=O)C[C@H]2/C=C/CCSSC[C@@H](NC1=O)C(=O)N[C@H](C(C)C)[C@@H](O)CC(=O)O2`: the half-maximal inhibitory concentration (IC50) amounted to 47000 nM in test [1], 930 nM in test [2] and 0.48 nM in test [3].
The corresponding values for `CSCC[C@H]1NC(=O)C[C@H]2/C=C/CCSSC[C@@H](NC1=O)C(=O)N[C@H](C(C)C)[C@@H](O)CC(=O)O2` are 38000 nM, 780 nM and 0.2 nM.
As to `C/C=C1\NC(=O)[C@H]2CSSCC/C=C/[C@H](CC(=O)N[C@H](C(C)C)C(=O)N2)OC(=O)[C@H](C(C)C)NC1=O` [ROMIDEPSIN], the IC50 in test [1] came to 8670 nM.
As to `CSCC[C@H]1NC(=O)C[C@H]2/C=C/CCSSC[C@@H](NC1=O)C(=O)N[C@H](CC(C)C)[C@@H](O)CC(=O)O2`, the IC50 in test [1] was determined as 58900 nM; in test [2], 1680 nM; in test [3] it was 0.94 nM.

The IC50 is the concentration that gives 50% inhibition.

The values are drawn from ChEMBL document CHEMBL3217588, “Discovery and activity profiling of thailandepsins A through F, potent histone deacetylase inhibitors, from Burkholderia thailandensis E264” (Medchemcomm, 2012).
